Reference: US8741934B2, “Inhibitors of ion channels” (Pfizer Limited, priority 2007, dated 2014)

What follows are molecules tested against T1, hSCN3A sodium channels (Homo sapiens, UniProt Q9NY46) (assay: hSCN3A electrophysiology, whole-cell patch-clamp or PatchXpress 7000, estimated IC-50 (Table B)). Details: estimated IC-50; hSCN3A cells, whole-cell patch-clamp or PatchXpress 7000; read-out: SCN3A EIC-50.
T1 construct: expressed in transfected cells
Type: cell-based
Experimental: Human Embryonic Kidney (HEK) cells were transfected with an hSCN3A construct using lipofectamine reagent (Invitrogen), using standard techniques. […] Clones were screened for expression using the whole-cell voltage-clamp technique.
HEK cells stably transfected with hSCN3A were maintained in DMEM medium supplemented with 10% heat-inactivated fetal bovine serum and 400 μg/ml G418 sulfate in an incubator at 37° C. with a humidified atmosphere of 10% CO2. […] For electrophysiological studies, cells were removed from the culture flask by brief trypsinization and replated at low density onto glass cover slips. Cells were typically used for electrophysiological experiments within 24 to 72 h after plating.
All recordings were made at room temperature (22-24° C.) using AXOPATCH 200B amplifiers and PCLAMP software (Axon Instruments, Burlingame, Calif.) or PatchXpress 7000 hardware and associated software (Axon Instruments, Burlingame, Calif.).
Current records were acquired at 20 to 50 KHz and filtered at 5 to 10 KHz.
HEK cells stably transfected with hSCN3A were viewed under Hoffman contrast optics and placed in front of an array of flow pipes emitting either control or compound-containing extracellular solutions. All compounds were dissolved in dimethyl sulfoxide to make 10 mM stock solutions, which were then diluted into extracellular solution to attain the final concentrations desired.
The voltage-dependence of inactivation was determined by applying a series of depolarizing prepulses (8 sec long in 10 mV increments) from a negative holding potential. The voltage was then immediately stepped to 0 mV to assess the magnitude of the sodium current. Currents elicited at 0 mV were plotted as a function of prepulse potential to allow estimation of the voltage midpoint of inactivation (V1/2). Cells were then voltage clamped at the empirically determined V1/2.
Compounds were tested for their ability to inhibit hSCN3A sodium channels by activating the channel with a 20 msec voltage step to 0 mV following an 8 second conditioning prepulse to the empirically determined V1/2 (Table B). Compound effect (% inhibition) was determined by difference in current amplitude before and after application of test compounds. […] Inhibition values <20% and >80% were excluded from the calculation.
In some cases electrophysiological assays were conducted with PatchXpress 7000 hardware and associated software (Molecular Devices Corp) (Table B). All assay buffers and solutions were identical to those used in conventional whole-cell voltage clamp experiments described above. hSCN3A cells were grown as above to 50%-80% confluency and harvested by trypsinization. Trypsinized cells were washed and resuspended in extracellular buffer at a concentration of 1×10^6 cells/ml. The onboard liquid handling facility of the PatchXpress was used for dispensing cells and application of test compounds. Determination of the voltage midpoint of inactivation was as described for conventional whole-cell recordings. Cells were then voltage-clamped to the empirically determined V1/2 and current was activated by a 20 msec voltage step to 0 mV.

T1 sequence (Q9NY46 whole entry): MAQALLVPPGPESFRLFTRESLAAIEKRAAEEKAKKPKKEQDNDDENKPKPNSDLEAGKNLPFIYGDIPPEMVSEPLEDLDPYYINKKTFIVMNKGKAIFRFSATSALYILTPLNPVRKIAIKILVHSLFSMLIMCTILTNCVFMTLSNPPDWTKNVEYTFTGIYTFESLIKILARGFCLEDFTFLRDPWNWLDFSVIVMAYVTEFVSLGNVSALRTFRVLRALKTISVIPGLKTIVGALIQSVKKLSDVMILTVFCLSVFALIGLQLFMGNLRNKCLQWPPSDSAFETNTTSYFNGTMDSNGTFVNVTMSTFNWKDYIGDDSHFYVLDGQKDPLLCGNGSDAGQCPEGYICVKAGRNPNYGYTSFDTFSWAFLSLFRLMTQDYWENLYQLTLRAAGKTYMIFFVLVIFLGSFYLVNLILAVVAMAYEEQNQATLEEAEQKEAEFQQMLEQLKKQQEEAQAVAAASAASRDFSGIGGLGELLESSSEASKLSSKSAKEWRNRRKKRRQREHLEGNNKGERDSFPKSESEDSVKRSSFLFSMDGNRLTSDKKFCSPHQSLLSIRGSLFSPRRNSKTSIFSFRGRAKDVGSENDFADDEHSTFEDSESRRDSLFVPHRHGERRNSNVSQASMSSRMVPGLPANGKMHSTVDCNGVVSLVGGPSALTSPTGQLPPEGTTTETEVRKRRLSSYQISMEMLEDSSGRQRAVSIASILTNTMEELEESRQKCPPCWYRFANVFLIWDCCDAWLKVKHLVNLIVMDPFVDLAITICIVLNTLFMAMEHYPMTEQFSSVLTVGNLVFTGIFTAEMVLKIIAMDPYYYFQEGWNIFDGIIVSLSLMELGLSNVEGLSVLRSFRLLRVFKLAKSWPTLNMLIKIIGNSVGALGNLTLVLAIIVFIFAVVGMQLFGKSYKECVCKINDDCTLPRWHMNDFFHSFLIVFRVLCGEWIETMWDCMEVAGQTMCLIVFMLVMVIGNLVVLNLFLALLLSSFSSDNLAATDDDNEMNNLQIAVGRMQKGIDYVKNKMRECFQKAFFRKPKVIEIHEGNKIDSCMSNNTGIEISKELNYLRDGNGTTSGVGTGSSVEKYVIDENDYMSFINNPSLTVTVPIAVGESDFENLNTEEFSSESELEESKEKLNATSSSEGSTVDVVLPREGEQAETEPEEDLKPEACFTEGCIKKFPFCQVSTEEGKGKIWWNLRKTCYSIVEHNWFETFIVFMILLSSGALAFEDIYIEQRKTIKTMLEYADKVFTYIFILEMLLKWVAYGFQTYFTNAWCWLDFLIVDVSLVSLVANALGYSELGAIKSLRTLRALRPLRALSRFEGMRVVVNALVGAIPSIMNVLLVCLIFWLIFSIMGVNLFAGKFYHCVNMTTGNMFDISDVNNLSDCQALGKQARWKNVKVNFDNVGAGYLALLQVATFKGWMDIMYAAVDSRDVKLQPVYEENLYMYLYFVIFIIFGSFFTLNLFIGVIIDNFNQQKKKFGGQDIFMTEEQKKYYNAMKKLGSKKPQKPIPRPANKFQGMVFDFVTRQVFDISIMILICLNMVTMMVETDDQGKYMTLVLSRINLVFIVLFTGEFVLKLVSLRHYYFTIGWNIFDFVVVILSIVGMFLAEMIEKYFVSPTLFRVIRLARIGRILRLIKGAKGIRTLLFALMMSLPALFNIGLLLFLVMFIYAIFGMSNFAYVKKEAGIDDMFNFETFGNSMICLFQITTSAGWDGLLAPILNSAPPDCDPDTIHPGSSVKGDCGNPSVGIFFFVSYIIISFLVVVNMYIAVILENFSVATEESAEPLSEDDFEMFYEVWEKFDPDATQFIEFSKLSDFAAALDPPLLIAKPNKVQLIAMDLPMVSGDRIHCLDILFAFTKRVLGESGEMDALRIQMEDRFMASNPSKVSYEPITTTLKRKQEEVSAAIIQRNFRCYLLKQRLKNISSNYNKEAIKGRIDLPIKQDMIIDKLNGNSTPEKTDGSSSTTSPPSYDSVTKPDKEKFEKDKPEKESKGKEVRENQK

First: O=C(c1ccc(S(=O)(=O)Nc2nccs2)cc1)N1CCC(O)(c2ccc(Cl)cc2)CC1 [Example 236, 4-{[4-(4-Chlorophenyl)-4-hydroxypiperidin-1-yl]carbonyl}-N-1,3-thiazol-2-ylbenzenesulfonamide]
Second: O=C(c1ccc(S(=O)(=O)Nc2nccs2)cc1)N1CCCC(Cc2ccc(F)cc2)C1 (centres unmarked) [Example 222, 4-{[3-(4-Fluorobenzyl)piperidin-1-yl]carbonyl}-N-1,3-thiazol-2-yl-benzenesulfonamide]
The IC50 of the first is 3.2-fold higher: 3110 nM for the first, 980 nM for the second.

Going from `O=C(NCc1ccc(C(F)(F)F)c(F)c1)c1ccc(S(=O)(=O)Nc2nccs2)cc1F` [Example 333, 2-Fluoro-N-[3-fluoro-4-(trifluoromethyl)benzyl]-4-[(1,3-thiazol-2-ylamino)sulfonyl] benzamide] to `O=C(NCc1ccc(Cl)c(F)c1)c1ccc(S(=O)(=O)Nc2nccs2)cc1F` [Example 334, N-(4-chloro-3-fluorobenzyl)-2-fluoro-4-[(1,3-thiazol-2-ylamino)sulfonyl] benzamide], the IC50 rises from 210 nM to 340 nM (1.6-fold). The first is the more potent here.

First: O=C(NCc1ccc(F)c(F)c1)c1ccc(S(=O)(=O)Nc2ncc(Cl)s2)c(F)c1 [Example 312, 4-{[(5-Chloro-1,3-thiazol-2-yl)amino]sulfonyl}-N-(3,4-difluorobenzyl)-3-fluorobenzamide]
Second: O=C(NCc1ccc(F)c(Cl)c1)c1ccc(S(=O)(=O)Nc2ncc(Cl)s2)c(Cl)c1 [Example 363, 3-Chloro-N-(3-chloro-4-fluorobenzyl)-4-{[(5-chloro-1,3-thiazol-2-yl)amino]sulfonyl} benzamide]
The IC50 of the first is 8.6-fold lower: 140 nM for the first, 1200 nM for the second. The first is the more potent here.

`O=C(NCc1ccc(C(F)(F)F)cc1)c1ccc(S(=O)(=O)Nc2nc[nH]n2)cc1` [Example 390, 4-[(1H-1,2,4-triazol-3-ylamino)sulfonyl]-N-[4-(trifluoromethyl)benzyl]benzamide] and `Cn1ccc(NS(=O)(=O)c2ccc(C(=O)NCc3ccc(C(F)(F)F)cc3)cc2)n1` [Example 2, 4-{[(1-Methyl-1H-pyrazol-3-yl)amino]sulfonyl}-N-[4-(trifluoromethyl)benzyl]benzamide] cannot be ordered by IC50: 9950 nM for the first, > 1000 nM for the second.

Compared with `O=C(NCc1ccc(OC(F)(F)F)c(F)c1)c1ccc(S(=O)(=O)Nc2nccs2)cn1` [Example 343, N-[3-fluoro-4-(trifluoromethoxy)benzyl]-5-[(1,3-thiazol-2-ylamino)sulfonyl] pyridine-2-carboxamide], `O=C(NCc1ccc(OC(F)(F)F)cc1)c1ccc(S(=O)(=O)Nc2nccs2)c(F)c1` [Example 301, 3-Fluoro-4-[(1,3-thiazol-2-ylamino)sulfonyl]-N-[4-(trifluoromethoxy)benzyl]benzamide] is 1.7-fold lower in IC50: 310 nM for the first, 180 nM for the second. The second is the more potent here.

Compared with `O=C(NCCOc1cccc(Cl)c1)c1ccc(S(=O)(=O)Nc2nccs2)cc1` [Example 144, N-[2-(3-chlorophenoxy)ethyl]-4-[(1,3-thiazol-2-ylamino)sulfonyl]benzamide], `O=C(NCCc1ccc(Cl)cc1)c1ccc(S(=O)(=O)Nc2nccs2)cc1` [Example 72, N-[2-(4-chlorophenyl)ethyl]-4-[(1,3-thiazol-2-ylamino)sulfonyl]benzamide] is 1.8-fold lower in IC50: 1180 nM for the first, 660 nM for the second. The second is the more potent here.

Compared with `O=C(NCc1cccc(C(F)(F)F)c1F)c1ccc(S(=O)(=O)Nc2nccs2)cc1` [Example 392, N-[2-fluoro-3-(trifluoromethyl)benzyl]-4-[(1,3-thiazol-2-ylamino)sulfonyl]benzamide], `O=C(NCc1ccccc1OC(F)(F)F)c1ccc(S(=O)(=O)Nc2nccs2)cc1` [Example 78, 4-[(1,3-Thiazol-2-ylamino)sulfonyl]-N-[2-(trifluoromethoxy)benzyl]benzamide] is 7.1-fold higher in IC50: 230 nM for the first, 1630 nM for the second. The first is the more potent here.

Compared with `O=C(c1ccc(S(=O)(=O)Nc2nccs2)cc1)N1CCC[C@H]1COc1cccc(Cl)c1` [Example 384, 4-({(2S)-2-[(3-chlorophenoxy)methyl]pyrrolidin-1-yl}carbonyl)-N-1,3-thiazol-2-ylbenzenesulfonamide], `O=C(c1ccc(S(=O)(=O)Nc2nccs2)cc1)N1CCOC(COc2cc(F)cc(F)c2)C1` (centres unmarked) [Example 262, 4-({2-[(3,5-Difluorophenoxy)methyl]morpholin-4-yl}carbonyl)-N-1,3-thiazol-2-ylbenzenesulfonamide] is 20-fold higher in IC50: 350 nM for the first, 6850 nM for the second.

First: COc1ccccc1CCNC(=O)c1ccc(S(=O)(=O)Nc2nccs2)cc1 [Example 165, N-[2-(2-methoxyphenyl)ethyl]-4-[(1,3-thiazol-2-ylamino)sulfonyl]benzamide]
Second: O=C(NCc1cc(Cl)ccc1Cl)c1ccc(S(=O)(=O)Nc2nccs2)cc1 [Example 126, N-(2,5-dichlorobenzyl)-4-[(1,3-thiazol-2-ylamino)sulfonyl]benzamide]
The IC50 of the first is 14-fold higher: 4180 nM for the first, 290 nM for the second.

First: O=C(NCc1cccc(C(F)(F)F)c1)c1ccc(S(=O)(=O)Nc2nccs2)c(F)c1 [Example 302, 3-Fluoro-4-[(1,3-thiazol-2-ylamino)sulfonyl]-N-[3-(trifluoromethyl)benzyl]benzamide]
Second: O=C(NCc1ccc(C(F)(F)F)cc1)c1ccc(S(=O)(=O)Nc2nccs2)c(Cl)c1 [Example 287, 3-Chloro-4-[(1,3-thiazol-2-ylamino)sulfonyl]-N-[4-(trifluoromethyl)benzyl]benzamide]
The IC50 of the first is 1.6-fold higher: 350 nM for the first, 220 nM for the second. The second is the more potent here.

First: Cc1cc(NS(=O)(=O)c2ccc(C(=O)NCc3ccc(C(F)(F)F)cc3)cc2)no1 [Example 18, 4-{[(5-Methylisoxazol-3-yl)amino]sulofnyl}-N-[4-(trifluoromethyl)benzyl]benzamide]
Second: Cc1csc(NS(=O)(=O)c2ccc(C(=O)NCc3ccc(C(F)(F)F)cc3)cc2)n1 [Example 391, 4-{[(4-methyl-1,3-thiazol-2-yl)amino]sulfonyl}-N-[4-(trifluoromethyl)benzyl] benzamide]
The IC50 of the first is 1.7-fold higher: 2260 nM for the first, 1350 nM for the second. The second is the more potent here.

Compared with `O=C(NCc1cccc(-c2ccccc2)c1)c1ccc(S(=O)(=O)Nc2nccs2)cc1` [Example 411, N-(biphenyl-3-ylmethyl)-4-[(1,3-thiazol-2-ylamino)sulfonyl] benzamide], `O=C(NCc1cccc(OC(F)F)c1)c1ccc(S(=O)(=O)Nc2nccs2)cc1` [Example 63, N-[3-(difluoromethoxy)benzyl]-4-[(1,3-thiazol-2-ylamino)sulfonyl]benzamide] is 9.1-fold higher in IC50: 120 nM for the first, 1090 nM for the second.

Going from `O=C(NCc1ccc(C(F)(F)F)c(F)c1)c1ccc(S(=O)(=O)Nc2ncc(Cl)s2)cc1Cl` [Example 339, 2-Chloro-4-{[(5-chloro-1,3-thiazol-2-yl)amino]sulfonyl}-N-[3-fluoro-4-(trifluoromethyl)benzyl]benzamide] to `O=C(NCc1ccc(C(F)(F)F)c(F)c1)c1ccc(S(=O)(=O)Nc2ncc(Cl)s2)cc1` [Example 31, 4-{[(5-Chloro-1,3-thiazol-2-yl)amino]sulfonyl}-N-[3-fluoro-4-(trifluoromethyl)benzyl]benzamide], the IC50 falls from 590 nM to 70 nM (8.4-fold).

`O=C(NCc1ccc(C(F)(F)F)cc1F)c1ccc(S(=O)(=O)Nc2ncc(Cl)s2)cc1` [Example 39, 4-{[(5-Chloro-1,3-thiazol-2-yl)amino]sulfonyl}-N-[2-fluoro-4-(trifluoromethyl)benzyl]benzamide] and `O=C(NCc1ccc(OC(F)(F)F)cc1)c1ccc(S(=O)(=O)Nc2ncc(Cl)s2)cc1F` [Example 360, 4-{[(5-Chloro-1,3-thiazol-2-yl)amino]sulfonyl}-2-fluoro-N-[4-(trifluoromethoxy)benzyl]benzamide] are within 1.5-fold of each other in IC50: 120 nM for the first, 160 nM for the second.

Going from `O=C(N[C@H]1C[C@@H]1c1ccccc1)c1ccc(S(=O)(=O)Nc2ncc(Cl)s2)cc1` [Example 42, 4-{[(5-Chloro-1,3-thiazol-2-yl)amino]sulfonyl}-N-[(1S,2R)-2-phenylcyclopropyl]benzamide] to `O=C(NCc1ccc(F)c(Cl)c1)c1ccc(S(=O)(=O)Nc2nccs2)cc1` [Example 401, N-(3-chloro-4-fluorobenzyl)-4-[(1,3-thiazol-2-ylamino)sulfonyl] benzamide], the IC50 falls from 510 nM to 170 nM (3-fold). The second is the more potent here.

With `O=C(NCc1ccc(C(F)(F)F)c(F)c1)c1ccc(S(=O)(=O)Nc2ncns2)c(F)c1` [Example 319, 3-Fluoro-N-[3-fluoro-4-(trifluoromethyl)benzyl]-4-[(1,2,4-thiadiazol-5-ylamino)sulfonyl]benzamide] the IC50 was 70 nM.

Same assay, conditions: read-out: SCN3A EIC-50

`O=C(NCc1ccc(C(F)(F)F)c(Cl)c1)c1ccc(S(=O)(=O)Nc2nccs2)cn1` [Example 341, N-[3-chloro-4-(trifluoromethyl)benzyl]-5-[(1,3-thiazol-2-ylamino)sulfonyl] pyridine-2-carboxamide] was tested, and the IC50 was 190 nM.
